Consider 21 molecules from BindingDB's records for doi:10.1021/cc050016r (Uppsala University, 2005).

Structures are written as SMILES. Values joined by “and” are separate entries in the source; they are usually repeats but may differ in a detail not shown here. Identical values can stand only once. Bounds are passed on as bounds.

In the assay the target is HIV-1 protease (Human immunodeficiency virus, UniProt Q9YQ34). Briefly: Fluorometric Assay. From the text: Fluorometric assay using HIV-1 protease.
HIV-1 protease, sequence (Q9YQ34 whole entry): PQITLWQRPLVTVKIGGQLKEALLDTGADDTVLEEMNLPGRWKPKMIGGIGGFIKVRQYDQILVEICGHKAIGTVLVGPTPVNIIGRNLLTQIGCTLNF
The molecule `CNC(=O)c1ccccc1CO[C@@H](C(=O)N[C@H](C(=O)NC)C(C)C)[C@H](O)[C@@H](O)[C@@H](OCc1ccccc1C(=O)NC)C(=O)N[C@H](C(=O)NC)C(C)C` [HIV-1 Protease Inhibitor, 6a] yielded a Ki above 5000 nM.
For `CNC(=O)[C@@H](NC(=O)[C@H](OCc1ccccc1C(=O)NC(C)(C)C)[C@H](O)[C@@H](O)[C@@H](OCc1ccccc1C(=O)NC(C)(C)C)C(=O)N[C@H](C(=O)NC)C(C)C)C(C)C` [HIV-1 Protease Inhibitor, 6b], the affinity corresponds to a Ki of 700 nM.
The result for `CCCCNC(=O)c1ccccc1CO[C@@H](C(=O)N[C@H](C(=O)NC)C(C)C)[C@H](O)[C@@H](O)[C@@H](OCc1ccccc1C(=O)NCCCC)C(=O)N[C@H](C(=O)NC)C(C)C` [HIV-1 Protease Inhibitor, 6c] reads 600 nM; that for `CNC(=O)[C@@H](NC(=O)[C@H](OCc1ccccc1C(=O)N1CCCC1)[C@H](O)[C@@H](O)[C@@H](OCc1ccccc1C(=O)N1CCCC1)C(=O)N[C@H](C(=O)NC)C(C)C)C(C)C` [HIV-1 Protease Inhibitor, 6d], 400 nM; that for `CNC(=O)[C@@H](NC(=O)[C@H](OCc1ccccc1C(=O)N1CCOCC1)[C@H](O)[C@@H](O)[C@@H](OCc1ccccc1C(=O)N1CCOCC1)C(=O)N[C@H](C(=O)NC)C(C)C)C(C)C` [HIV-1 Protease Inhibitor, 6e], above 5000 nM.
The figure for `CNC(=O)[C@@H](NC(=O)[C@H](OCc1ccccc1C(=O)NC1CCCCC1)[C@H](O)[C@@H](O)[C@@H](OCc1ccccc1C(=O)NC1CCCCC1)C(=O)N[C@H](C(=O)NC)C(C)C)C(C)C` [HIV-1 Protease Inhibitor, 6f] is 200 nM and 196 nM; for `CNC(=O)[C@@H](NC(=O)[C@H](OCc1ccccc1C(=O)Nc1nccs1)[C@H](O)[C@@H](O)[C@@H](OCc1ccccc1C(=O)Nc1nccs1)C(=O)N[C@H](C(=O)NC)C(C)C)C(C)C` [HIV-1 Protease Inhibitor, 6g] it is 700 nM; for `CNC(=O)[C@@H](NC(=O)[C@H](OCc1ccccc1C(=O)Nc1ccccc1)[C@H](O)[C@@H](O)[C@@H](OCc1ccccc1C(=O)Nc1ccccc1)C(=O)N[C@H](C(=O)NC)C(C)C)C(C)C` [HIV-1 Protease Inhibitor, 6h] it is 7 nM and 20 nM.
On to `CNC(=O)[C@@H](NC(=O)[C@H](OCc1ccccc1C(=O)Nc1cccnc1)[C@H](O)[C@@H](O)[C@@H](OCc1ccccc1C(=O)Nc1cccnc1)C(=O)N[C@H](C(=O)NC)C(C)C)C(C)C` [HIV-1 Protease Inhibitor, 6i], for which the Ki is 70 nM and 118 nM.
Molecule `CNC(=O)[C@@H](NC(=O)[C@H](OCc1ccccc1C(=O)N1CCc2ccccc21)[C@H](O)[C@@H](O)[C@@H](OCc1ccccc1C(=O)N1CCc2ccccc21)C(=O)N[C@H](C(=O)NC)C(C)C)C(C)C` [HIV-1 Protease Inhibitor, 6j] yielded a Ki of 800 nM.
The figure for `CCOC(=O)c1ccc(NC(=O)c2ccccc2CO[C@@H](C(=O)N[C@H](C(=O)NC)C(C)C)[C@H](O)[C@@H](O)[C@@H](OCc2ccccc2C(=O)Nc2ccc(C(=O)OCC)cc2)C(=O)N[C@H](C(=O)NC)C(C)C)cc1` [HIV-1 Protease Inhibitor, 6k] is 200 nM; for `CNC(=O)[C@@H](NC(=O)[C@H](OCc1ccccc1C(=O)Nc1cccc(Cl)c1)[C@H](O)[C@@H](O)[C@@H](OCc1ccccc1C(=O)Nc1cccc(Cl)c1)C(=O)N[C@H](C(=O)NC)C(C)C)C(C)C` [HIV-1 Protease Inhibitor, 6l] it is 6 nM and 8.5 nM.
The result for `CNC(=O)[C@@H](NC(=O)[C@H](OCc1ccccc1C(=O)NCc1ccccc1)[C@H](O)[C@@H](O)[C@@H](OCc1ccccc1C(=O)NCc1ccccc1)C(=O)N[C@H](C(=O)NC)C(C)C)C(C)C` [HIV-1 Protease Inhibitor, 6m] reads 2000 nM and 1330 nM; that for `CNC(=O)[C@@H](NC(=O)[C@H](OCc1ccccc1C(=O)Nc1cccc2cnccc12)[C@H](O)[C@@H](O)[C@@H](OCc1ccccc1C(=O)Nc1cccc2cnccc12)C(=O)N[C@H](C(=O)NC)C(C)C)C(C)C` [HIV-1 Protease Inhibitor, 6n], 800 nM.
The result for `CNC(=O)c1cccc(CO[C@@H](C(=O)N[C@H](C(=O)NC)C(C)C)[C@H](O)[C@@H](O)[C@@H](OCc2cccc(C(=O)NC)c2)C(=O)N[C@H](C(=O)NC)C(C)C)c1` [HIV-1 Protease Inhibitor, 7a] reads 20 nM; that for `CCCCNC(=O)c1cccc(CO[C@@H](C(=O)N[C@H](C(=O)NC)C(C)C)[C@H](O)[C@@H](O)[C@@H](OCc2cccc(C(=O)NCCCC)c2)C(=O)N[C@H](C(=O)NC)C(C)C)c1` [HIV-1 Protease Inhibitor, 7b], 3 nM and 6.5 nM; that for `CNC(=O)[C@@H](NC(=O)[C@H](OCc1cccc(C(=O)N2CCCC2)c1)[C@H](O)[C@@H](O)[C@@H](OCc1cccc(C(=O)N2CCCC2)c1)C(=O)N[C@H](C(=O)NC)C(C)C)C(C)C` [HIV-1 Protease Inhibitor, 7c], 200 nM.
As for `CNC(=O)[C@@H](NC(=O)[C@H](OCc1cccc(C(=O)N2CCOCC2)c1)[C@H](O)[C@@H](O)[C@@H](OCc1cccc(C(=O)N2CCOCC2)c1)C(=O)N[C@H](C(=O)NC)C(C)C)C(C)C` [HIV-1 Protease Inhibitor, 7d], the inhibition constant Ki came out at 300 nM.
The result for `CNC(=O)[C@@H](NC(=O)[C@H](OCc1cccc(C(=O)NC2CCCCC2)c1)[C@H](O)[C@@H](O)[C@@H](OCc1cccc(C(=O)NC2CCCCC2)c1)C(=O)N[C@H](C(=O)NC)C(C)C)C(C)C` [HIV-1 Protease Inhibitor, 7e] reads 20 nM; that for `CNC(=O)[C@@H](NC(=O)[C@H](OCc1cccc(C(=O)Nc2ccccc2)c1)[C@H](O)[C@@H](O)[C@@H](OCc1cccc(C(=O)Nc2ccccc2)c1)C(=O)N[C@H](C(=O)NC)C(C)C)C(C)C` [HIV-1 Protease Inhibitor, 7f], 7 nM.
The result for `CNC(=O)[C@@H](NC(=O)[C@H](OCc1cccc(C(=O)NCc2ccccc2)c1)[C@H](O)[C@@H](O)[C@@H](OCc1cccc(C(=O)NCc2ccccc2)c1)C(=O)N[C@H](C(=O)NC)C(C)C)C(C)C` [HIV-1 Protease Inhibitor, 7g] reads 2 nM and 2.9 nM.

What is called Ki is the dissociation constant of the complex between target and ligand, obtained from inhibition or displacement.
